From patent publication US20090280194A1, “USE OF NITROXYL (HNO) FOR THE TREATMENT OF CANCERS OVEREXPRESSING MAT-8” (priority 2008, published 2009)
Read-outs that look alike come from different tables or passages of the source.

Experiments:
[1] = system: LNCaP (androgen dependent) prostate tumor cells; assay: Growth inhibition of prostate tumor cells, modified MTT assay; assay type: cell-based
Method: (§1) PC3 cells (filled circles) are hormone independent cells, whereas, LNCaP (opend circles) are hormone dependent cells. Y-axis indicates percentage of cell growth as measured by a modified MTT assay. X-axis in the concentration (mM) of Angeli's salt added every 24 hrs for a total of 72 hours.
(§2) A characteristic feature of PC3 (androgen independent) and LNCaP (androgen dependent) prostate tumor cells is the overexpression of an intrinsic plasma membrane Na^+/K^+ pump regulatory protein, MAT-8. As described above, overexpression of MAT-8 is a property shared with breast, pancreatic and lung carcinomas. The growth inhibition of PC3 and LNCaP cells by nitroxyl (HNO) donated by Angeli's salt (AS) was investigated.
(§3) PC3 (2500 cells/well) and LNCaP (4000 cells/well) cells were cultured in 200 μl of incubation media in each well of a 96-well assay plate 24 hours prior to the addition of AS. Following an overnight incubation at 37° C., appropriate AS concentrations were added to each well from a fresh stock solution of 0.5 M AS (Na2N2O3) in 10 mM NaOH (added to stabilize AS) diluted to 30 mM with cell culture medium. AS/HNO was added every 24 hours for a total of 72 hours. Cell viability was assayed using the MTT assay, a colorimetric method performed with minor modification according to the procedure of Mossman (1983) J. Immunol. Methods 65:55-63.

[2] = system: PC3 (androgen independent) prostate tumor cells; assay: as above; assay type: cell-based
Method: as §1, §2, §3

[3] = target: T1, SERCA2a (Canis lupus familiaris, UniProt O46674); assay: EGTA-induced dephosphorylation (E2P hydrolysis) in native cardiac SR vesicles, quenched-flow mixing; assay type: biochemical, dog; details: 0.25 mM AS, 24° C.
T1 construct: native cardiac SR vesicles isolated from dog heart; from tissue; host or cells: dog heart, sarcoplasmic reticulum vesicles
Source text: Y-axis indicates the level of E2P (nmol/mg), which undergoes hydrolysis in step 6 of FIG. 3. X-axis indicates time following addition of Angeli's salt (sec). The inset figure represents a normalized comparison of E2P hydrolysis in the presence (+AS) or absence (−AS) of Angeli's salt.
Investigations of the mechanism of the cardiac muscle sarcoplasmic reticulum (SR) Ca^2+ pump (SERCA2a) have provided a paradigm for understanding how the interaction of nitroxyl with a regulatory protein (phospholamban) can activate the pump. SERCA2a is a P-type cation pump, i.e., it utilizes ATP as its energy source for uphill Ca^2+ transport and becomes phosphorylated by ATP during the catalytic cycle (FIG. 3). Regulation of its activity by the small intrinsic cardiac SR membrane protein, phospholamban (PLB), involves primarily steps 6 and 8 which are rate-limiting in the overall transport cycle and control Vmax (steps 6 and 8) and the affinity of the cytoplasmic Ca^2+ transport sites, Km (step 8). Mahaney et al. (2005) Biochemistry 44:7713-7724 and Antipenko et al. (1997) Biochemistry 36:12903-12910. […]
SERCA2a was initially phosphorylated at the catalytic site using 10 μM [γ^32P]ATP and then subsequently dephosphorylated by chasing with 5 mM EGTA. […] In the absence of AS/HNO, E2P decay measured at 24° C. by quenched-flow mixing in dog cardiac SR is slow ([…]) and monophasic (FIG. 4).

[4] = target: T2, SERCA2a + PLB (WT) (Canis lupus familiaris, UniProt O46674+P61012); assay: E2P hydrolysis in Sf21 ER microsomes after EGTA chase; assay type: biochemical
T2 construct: made in house; host or cells: Sf21 insect cells (baculovirus), ER microsomes
Source text: (§4) Nitroxyl (HNO) donated by Angeli's salt (AS) enhances intracellular Ca^2+ cycling in isolated cardiac myocytes by activating Ca^2+ release from ryanodine (RyR2) receptors and Ca^2+ re-uptake by the SR Ca^2+ pump. Tocchetti et al. (2007) Circ. Res. 100:96-104. In cardiac SR vesicles, activation of Ca^2+ uptake by HNO involves a direct interaction with the pump and is accompanied by enhanced dephosphorylation of the cardiac Ca^2+-ATPase isozyme, SERCA2a. To determine whether HNO interacts with SERCA2a or its regulatory protein, phospholamban (PLB) and to characterize the protein site(s) modified by HNO, activation of SERCA2a dephosphorylation by nitroxyl using SERCA2a and PLB (WT and mutant) expressed in Sf21 cell ER microsomes (baculovirus system) was investigated. Brief exposure of SERCA2a+WT PLB to 0.25 mM AS produced a 10-fold stimulation of dephosphorylation (0.5 s^−1→5 s^−1) following an EGTA chase (Table 2). […] Exposure to dithiothreitol (2 mM DTT) reversed the activation of dephosphorylation by nitroxyl, similar to its effect on HNO-induced activation of Ca^2+ release from the RyR2 receptor. Tocchetti et al. (2007) Circ. Res. 100:96-104.

[5] = target: T3, SERCA2a + PLB (−C) (Homo sapiens, UniProt P16615+P26678, C36A/C41A/C46A); assay: as above; assay type: biochemical
T3 construct: made in house; host or cells: Sf21 insect cells (baculovirus), ER microsomes
Source text: as §4

[6] = system: SERCA2a alone; assay: as above; assay type: biochemical; details: 0.25 mM AS
Source text: as §4

[7] = target: T4, SR Ca^2+ pump (SERCA2a) (Mus musculus, UniProt O55143); details: brief exposure to AS (0.25 mM); SR vesicles from mouse heart; cited from earlier work
T4 construct: Using SR vesicles prepared from mouse heart; host or cells: mouse heart SR vesicles

[8] = cited from earlier work
[9] = system: cells; details: cited from earlier work
[10] = AS added every 24 h for 72 h, read-out: Experiment 2 (EC50)
[11] = AS added every 24 h for 72 h, read-out: Experiment 3 (EC50)
[12] = mean of 3 independent experiments, read-out: Mean EC50
[13] = range given for both cell lines, read-out: EC50 growth inhibition over a series of three separate experiments

T2 sequence (P61012 whole entry): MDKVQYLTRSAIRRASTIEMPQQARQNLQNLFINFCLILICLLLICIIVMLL
T2 sequence (O46674 whole entry): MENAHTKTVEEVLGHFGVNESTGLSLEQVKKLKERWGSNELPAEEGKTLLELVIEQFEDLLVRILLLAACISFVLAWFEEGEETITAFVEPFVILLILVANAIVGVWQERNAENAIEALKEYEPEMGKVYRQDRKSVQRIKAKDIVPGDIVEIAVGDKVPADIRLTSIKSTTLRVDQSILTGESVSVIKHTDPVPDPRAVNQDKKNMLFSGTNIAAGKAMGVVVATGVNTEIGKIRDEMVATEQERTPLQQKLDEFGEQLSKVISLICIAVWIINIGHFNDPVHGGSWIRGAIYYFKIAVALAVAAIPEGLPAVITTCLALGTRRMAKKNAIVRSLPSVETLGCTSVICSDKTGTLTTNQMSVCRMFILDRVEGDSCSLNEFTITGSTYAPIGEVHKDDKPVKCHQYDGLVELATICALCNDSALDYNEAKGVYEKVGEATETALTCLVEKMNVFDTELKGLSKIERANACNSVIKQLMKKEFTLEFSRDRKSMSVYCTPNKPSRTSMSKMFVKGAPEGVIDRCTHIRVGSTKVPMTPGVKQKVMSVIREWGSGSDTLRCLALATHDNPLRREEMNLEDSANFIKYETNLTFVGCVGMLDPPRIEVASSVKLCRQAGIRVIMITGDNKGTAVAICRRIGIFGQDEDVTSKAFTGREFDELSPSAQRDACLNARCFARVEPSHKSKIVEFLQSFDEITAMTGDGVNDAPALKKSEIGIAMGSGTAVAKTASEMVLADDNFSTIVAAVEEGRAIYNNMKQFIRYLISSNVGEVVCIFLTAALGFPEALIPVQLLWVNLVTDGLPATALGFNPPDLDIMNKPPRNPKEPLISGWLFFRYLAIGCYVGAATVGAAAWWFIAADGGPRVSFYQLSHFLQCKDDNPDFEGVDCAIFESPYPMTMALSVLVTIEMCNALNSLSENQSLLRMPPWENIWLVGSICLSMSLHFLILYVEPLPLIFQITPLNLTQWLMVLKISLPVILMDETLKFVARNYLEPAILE
T3 sequence (P16615 1-997 isoform P16615-2, stated change not applied): as the sequence (O46674 whole entry) above, with S376T, K403N, P538S, V544I, N576H, S661N, S713A, D877E, L963V counted along it
T3 sequence (P26678 whole entry C36A/C41A/C46A): as the sequence (P61012 whole entry) above, with D2E, N27K, C36A, C41A, C46A counted along it
T1 sequence (P61012 whole entry partner): as the sequence (P61012 whole entry) above
T1 sequence (O46674 whole entry): as the sequence (O46674 whole entry) above
T4 sequence (P61014 whole entry partner): as the sequence (P61012 whole entry) above, with D2E counted along it
T4 sequence (O55143 1-998 isoform O55143-2): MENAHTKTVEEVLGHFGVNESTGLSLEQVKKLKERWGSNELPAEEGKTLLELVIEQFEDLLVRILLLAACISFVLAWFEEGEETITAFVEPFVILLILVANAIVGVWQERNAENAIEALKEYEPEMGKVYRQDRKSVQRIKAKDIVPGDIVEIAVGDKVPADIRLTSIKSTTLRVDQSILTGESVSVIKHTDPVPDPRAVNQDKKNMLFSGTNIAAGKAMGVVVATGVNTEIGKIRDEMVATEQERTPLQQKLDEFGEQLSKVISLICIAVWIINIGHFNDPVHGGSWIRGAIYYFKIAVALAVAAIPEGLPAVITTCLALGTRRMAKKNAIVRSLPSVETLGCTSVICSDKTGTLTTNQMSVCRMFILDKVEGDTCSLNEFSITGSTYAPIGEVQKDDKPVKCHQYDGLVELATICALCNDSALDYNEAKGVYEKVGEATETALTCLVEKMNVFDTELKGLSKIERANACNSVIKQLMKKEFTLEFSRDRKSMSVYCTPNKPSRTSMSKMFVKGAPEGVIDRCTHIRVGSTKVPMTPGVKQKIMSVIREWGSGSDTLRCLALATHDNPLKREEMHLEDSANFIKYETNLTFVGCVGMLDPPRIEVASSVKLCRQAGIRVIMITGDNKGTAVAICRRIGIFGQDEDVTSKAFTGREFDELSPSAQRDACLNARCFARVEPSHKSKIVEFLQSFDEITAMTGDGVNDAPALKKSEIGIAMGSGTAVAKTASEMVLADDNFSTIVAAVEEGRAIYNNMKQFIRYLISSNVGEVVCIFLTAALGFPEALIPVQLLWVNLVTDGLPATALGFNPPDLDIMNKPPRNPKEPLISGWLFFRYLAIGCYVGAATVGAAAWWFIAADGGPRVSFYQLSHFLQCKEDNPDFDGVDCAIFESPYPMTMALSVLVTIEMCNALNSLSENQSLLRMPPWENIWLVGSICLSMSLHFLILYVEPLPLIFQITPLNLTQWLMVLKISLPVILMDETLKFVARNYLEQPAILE

SMILES: [Na+].[Na+].[O-][N+]([O-])=NO [Angeli's salt]
- EC50 ([1]; AS added every 24 h for 72 h, read-out: Experiment 1 (EC50)): 3 mM
- EC50 [1, 10]: 0.9 mM
- EC50 [1, 11]: 1.2 mM
- EC50 [1, 12]: 1.7 mM
- EC50 ([1]; mean of experiments 2 and 3 only (experiment 1 left out), read-out: Mean EC50): 1.05 mM
- EC50 [1, 13]: 1 to 1.7 mM
- EC50 ([2]; AS added every 24 h for 72 h, 50% growth inhibition, read-out: Experiment 1 (EC50)): 1.4 mM
- EC50 [2, 10]: 0.7 mM
- EC50 [2, 11]: 1.4 mM
- EC50 [2, 12]: 1.17 mM
- EC50 [2, 13]: 1 to 1.7 mM
- E2P decay, accelerated initial decay phase ([3]; without AS 11 s^−1): 77 s⁻¹
- E2P decay pattern ([3]; without AS monophasic): biphasic decay pattern
- A1 (%) amplitude fast phase ([4]; 0.25 mM AS, 0° C.): 11%
- A2 (%) amplitude slow phase ([4]; 0.25 mM AS, 0° C.): 89%
- k1 ([4]; 0.25 mM AS, 0° C.): 5.00 s⁻¹
- k2 ([4]; 0.25 mM AS, 0° C.): 0.154 s⁻¹
- dephosphorylation rate ([4]; 0.25 mM AS, EGTA chase, from 0.5 s^−1 without AS): 5 s⁻¹
- stimulation of dephosphorylation ([4]; brief exposure to 0.25 mM AS, EGTA chase): 10 fold
- A1 (%) amplitude fast phase ([5]; 0.25 mM AS, 0° C.): 100%
- k1 ([5]; 0.25 mM AS, 0° C.): 0.18 s⁻¹
- stimulation of dephosphorylation by nitroxyl ([5]; mutant PLB, all 3 transmembrane cysteines Cys→Ala): no stimulation
- A1 (%) amplitude fast phase ([6]; 0° C.): 23%
- A2 (%) amplitude slow phase ([6]; 0° C.): 77%
- k1 ([6]; 0° C.): 4.64 s⁻¹
- k2 ([6]; 0° C.): 0.174 s⁻¹
- stimulation of dephosphorylation ([6]; microsomes expressing SERCA2a alone): No additional stimulation
- effect on Ca^2+ uptake [7]: activates Ca^2+uptake
- water solubility [8]: highly water soluble
- cell permeation [9]: rapidly permeates cells
